Experimental findings from patent US12595250B2, “Substituted pyrimidine compounds as multifunctional radical quenchers and their uses” (ARIZONA BOARD OF REGENTS ON BEHALF OF ARIZONA STATE …, priority 2016, dated 2026) are described below.

SMILES strings stand for the structures.

The test system of data set [1] is FRDA lymphocytes. The data set is described as follows: Cellular ATP concentration assay (luciferin-luciferase). The format is cell-based, Human. Conditions: for activity at 1 µM / activity at 5 µM / activity at 20 µM: Homo sapiens, Lymphocyte, incubation 48 h, read-out: Total ATP level (% control) FRDA lymphocytes.
Data set [2] is described as follows: In vitro microsomal stability assay. The conditions noted are these: pH 7.4, bovine liver microsomes 1 mg/mL, 25 μM compound, 37° C., NADPH, read-out: Recovery (%) of compound after reaction with activated microsomes. The format is in vitro ADME. Here is the method: Liver tissues were diced into small pieces and then washed with isotonic sucrose buffer (0.25 M sucrose, 10 mM Tris-HCl, 0.5 mM EDTA, pH 7.8). The diced tissue was passed through a precooled meat grinder and mixed with three-fold ice cold sucrose buffer supplemented with a mixture of protease inhibitors. The suspension was homogenized in a Waring blender for 25 s at high speed. At this stage, the pH of the suspension was adjusted to 7.4 with 1 M Tris base. The homogenate was centrifuged for 20 min at 1200×g to remove cell debris. The supernatant suspension was homogenized in a tight fitting Teflon-glass Potter-Elvehjem homogenizer and then centrifuged twice at 10,000×g for 20 min, collecting the supernatant each time to remove mitochondria. The floating fat layer was carefully removed by filtering the supernatant through layers of cheesecloth. The supernatant was centrifuged at 150,000×g for 30 min (Beckman-Coulter ultracentrifuge, XL-100K-01, SW 55 Ti rotor). The pellet (microsomal fraction) was suspended in 0.25 M sucrose buffer containing 10 mM Tris-HCl, pH 7.4, with 20% (v/v) glycerol, and centrifuged once more at 150,000×g. The pellet was resuspended in sucrose buffer with 20% (v/v) glycerol. The protein concentration after resuspension was approximately 20 mg/mL, as determined by BCA protein assay (Pierce Chemical) using bovine serum albumin as a standard. Aliquots of microsomal suspensions were stored at −80° C.
In vitro metabolic stability was determined in bovine liver microsomes at a protein concentration of 1 mg/mL in 50 mM phosphate buffer mixture, pH 7.4, containing 5 mM MgCl2 in a final incubation volume of 0.5 mL. Each test compound was added to a final concentration of 25 μM. This mixture was pre-warmed to 37° C. prior to starting the reaction by the addition of β-NADPH to 1 mM final concentration. After incubation for 30 min at 37° C., the reaction was quenched by the addition of 1 mL of propanol, vortexed for 2 min and centrifuged at 15,000×g for 10 min to pellet the precipitated protein. The resulting supernatant was pipetted out and then concentrated under diminished pressure. A parallel incubation of the test compound with deactivated microsomes (quenched immediately with propanol) lacking β-NADPH served as a control and was run for each test agent to detect microsome-independent degradation. The sample was reconstituted in 130 μL MeOH and centrifuged again at 15,000×g for 3 min. The supernatant was removed and 4 μM fluorene was added as an internal standard before HPLC analysis. HPLC analyses were performed on a Zorbax SB-Phenyl reversed phase analytical (150×4.6 mm, 5 m) HPLC column using a mobile phase consisting of MeOH/H2O. A linear gradient of (50:50 MeOH/H2O→100:0 MeOH/H2O) was employed over a period of 14 min at a flow rate of 1 mL/min. Metabolic stability was expressed as percent of control remaining. The experiments were carried out in duplicate to verify the results.

Data set [3] relates to FRDA lymphocytes. The data set is described as follows: Lipid peroxidation assay (C11-BODIPY 581/591, FACS). It is filed as cell-based, Human. Conditions: 0.1 μM (low concentration), 5 mM DEM. The protocol: The bar graph represents the percentage of the median mean fluorescence intensity of C11-BODIPY-green fluorescence relative to a treated control is shown. Data are expressed as the mean±SEM (n=3).
Human mitochondrial disease cell lines, Friedreich's ataxia lymphocytes (GM15850), and Leigh's syndrome lymphocytes (GM13740) were obtained from Coriell Cell Repositories (Camden, NJ). Lymphocytes were cultured in RPMI-1640 medium (Gibco, Life Technologies, Grand Island, NY) with 15% fetal calf serum, 2 mM glutamine (HyClone, South Logan, UT) and 1% penicillin-streptomycin antibiotic supplement (Cellgro, Manassas, VA). Cells were passaged every other day to maintain them in log phase growth and kept at a nominal concentration of 5-10×10^5 cell/mL. A CoQ10 deficient lymphocyte cell line (GM17932) was obtained from Coriell Cell Repositories. […]
Lipid peroxidation was measured by a quantitative FACS assay using the oxidation-sensitive fatty acid probe C11-BODIPY^581/591 (Molecular Probe) as described in art (Goldschmidt, R., et al. Bioorg. Med. Chem. 2013, 21, 969; Khdour, 0. M., et al. ACS Med. Chem. Lett. 2013, 4, 724; and Arce, P. M., et al. Bioorg. Med. Chem. 2012, 20, 5188). […] Cells were resuspended in phosphate buffered saline and were analyzed immediately by FACS (C6 Accuri, BD Biosciences, San Jose, CA), using a 488 nm excitation laser and the FL1-H channel 530±15 nm emission filter. The generation of lipid peroxide was detected as a result of the oxidation of the polyunsaturated butadienyl portion of the dye, resulting in a shift of the fluorescence emission peak from red to green. In each analysis, 10,000 events were recorded after cell debris were electronically gated out. […] Results were expressed as a percentage of the median mean fluorescence intensity of C11-BODIPY-green relative to the treated control (DEM).

With `Cc1nc(N2CCC2)nc(OC2CCC2)c1O` [Compound 1a, 2-(Azetidin-1-yl)-4-cyclobutanoxy-6-methylpyrimidin-5-ol], in the data set on FRDA lymphocytes [1], the activity at 1 µM came to 100 ± 1% and the activity at 5 µM turned out to be 98 ± 1%. Moreover, the activity at 20 µM in the data set with FRDA lymphocytes [1] (20 μM) was determined as 96 ± 2%.
As to `CCCCCCCCCCCCCCc1nc(N2CCC2)nc(OC2CCC2)c1O` [Compound 1b, 2-(Azetidin-1-yl)-4-cyclobutanoxy-6-tetradecylpyrimidin-5-ol], the recovery at 30 min, 25 μM in data set [2] was 63 ± 8%. Further, in the data set with FRDA lymphocytes [1], the activity at 1 µM came to 105 ± 3% and the activity at 5 µM was 102 ± 1%. For the same compound, the activity at 20 µM in the data set on FRDA lymphocytes [1] (20 μM) was 94 ± 2%.
Consider `CCCCCCCCCCCCCCCCc1nc(N2CCC2)nc(OC2CCC2)c1O` [Compound 1c, 2-(Azetidin-1-yl)-4-cyclobutoxy-6-hexadecylpyrimidin-5-ol], for which the recovery at 30 min, 25 μM in data set [2] was found to be 65 ± 8%. In the data set with FRDA lymphocytes [1], the activity at 1 µM was found to be 100 ± 1% and the activity at 5 µM was determined as 114 ± 3%. For the same compound, the activity at 20 µM in the data set with FRDA lymphocytes [1] (20 μM) is 103 ± 2%.
`Cc1nc(OC2CCC2)nc(N2CCC2)c1O` [Compound 2a, 4-(Azetidin-1-yl)-2-cyclobutanoxy-6-methylpyrimidin-5-ol]: in the data set with FRDA lymphocytes [1], the activity at 1 µM is 101 ± 1% and the activity at 5 µM worked out at 99 ± 3%. Moreover, the activity at 20 µM in the data set with FRDA lymphocytes [1] (20 μM) came out at 96 ± 3%.
For the compound `CCCCCCCCCCCCCCc1nc(OC2CCC2)nc(N2CCC2)c1O` [Compound 2b, 4-(Azetidin-1-yl)-2-cyclobutanoxy-6-tetradecylpyrimidin-5-ol], the “Suppression of lipid peroxidation, comparison of regioisomers (in words, FIG. 2)” value in the data set on FRDA lymphocytes [3] was “significantly more efficient than 1b”. Besides, in data set [2], the recovery at 30 min, 25 μM is 77%. In the data set on FRDA lymphocytes [1], the activity at 1 µM turned out to be 109 ± 3% and the activity at 5 µM was 105 ± 2%. Moreover, the activity at 20 µM in the data set on FRDA lymphocytes [1] (20 μM) worked out at 54 ± 6%.
With `CCCCCCCCCCCCCCCCc1nc(OC2CCC2)nc(N2CCC2)c1O` [Compound 2c, 4-(Azetidin-1-yl)-2-cyclobutanoxy-6-hexadecylpyrimidin-5-ol], the “Suppression of lipid peroxidation, comparison of regioisomers (in words, FIG. 2)” value with FRDA lymphocytes [3] was “better than 1c”. Also, in data set [2], the recovery at 30 min, 25 μM was 63 ± 9%. In the data set with FRDA lymphocytes [1], the activity at 1 µM stood at 102 ± 2% and the activity at 5 µM is 110 ± 4%. Also, the activity at 20 µM in the data set with FRDA lymphocytes [1] (20 μM) came out at 99 ± 2%.
Regarding `Cc1nc(OC2CCC2)nc(OC2CCC2)c1O` [Compound 3a, 2,4-Dicyclobutanoxy-6-methylpyrimidin-5-ol], in the data set with FRDA lymphocytes [1], the activity at 1 µM was determined as 101 ± 1% and the activity at 5 µM was determined as 99 ± 2%. Besides, the activity at 20 µM in the data set with FRDA lymphocytes [1] (20 μM) worked out at 97 ± 3%.
For `CCCCCCCCCCCCCCCCc1nc(OC2CCC2)nc(OC2CCC2)c1O` [Compound 3c, 2,4-Dicyclobutanoxy-6-hexadecylpyrimidin-5-ol], the recovery at 30 min, 25 μM in data set [2] came to 60 ± 5%. In addition, in the data set on FRDA lymphocytes [1], the activity at 1 µM was 98 ± 2% and the activity at 5 µM is 102 ± 2%. In the data set on FRDA lymphocytes [1] (20 μM), the activity at 20 µM turned out to be 96 ± 2%.
On to `Cc1nc(N2CCC2)nc(N2CCC2)c1O` [Compound 4a, 2,4-Di-(azetidin-1-yl)-6-methylpyrimidin-5-ol], for which, in the data set with FRDA lymphocytes [1] (20 μM), the “Inhibition of ATP production (in words)” value was “this effect seems less obvious” and the activity at 20 µM came to 85 ± 9%. Further, in the data set on FRDA lymphocytes [1], the activity at 1 µM was found to be 101 ± 2% and the activity at 5 µM amounted to 101 ± 2%.
In the case of `CCCCCCCCCCCCCCc1nc(N2CCC2)nc(N2CCC2)c1O` [Compound 4b, 2,4-Di-(azetidin-1-yl)-6-tetradecylpyrimidin-5-ol], the recovery at 30 min, 25 μM in data set [2] stood at 63 ± 5%. Besides, in the data set on FRDA lymphocytes [1], the activity at 1 µM is 86 ± 3% and the activity at 5 µM stood at 46 ± 7%. In the data set on FRDA lymphocytes [1] (20 μM), the activity at 20 µM was 1%.
For `CCCCCCCCCCCCCCCCc1nc(N2CCC2)nc(N2CCC2)c1O` [Compound 4c, 2,4-Di-(Azetidin-1-yl)-6-hexadecylpyrimidin-5-ol], in that order: 62 ± 3%, 92 ± 1%, 61 ± 9% and 1 ± 2%.
